A value given as a limit tells only on which side of the number the result lay.

This note sets out measurements from the supplement of paper PMC7801607.

For the assay, the system named is Plasmodium falciparum Dd2 asexual blood stage.
As to `OC[C@@H]1CC[C@H](n2cnc3c(O)ncnc32)O1`, the half-maximal inhibitory concentration (IC50) – broadly, the concentration at which inhibition is half-maximal – is greater than 5 µM.

The compound `Nc1nc(O)c2ncn(COCCO)c2n1` displayed a concentration for half-maximal inhibition (IC50) greater than 5 µM.

Turning to `O=C(/C=C/n1cnc(-c2cc(C(F)(F)F)cc(C(F)(F)F)c2)n1)NNc1cnccn1`, the 50% inhibitory concentration (IC50) was greater than 5 µM.

In turn, `O=C(CCCC(F)(F)F)N1CCC(c2nc(-c3nccs3)no2)CC1` yielded an IC50 greater than 5 µM.

As to `Cc1c(N)cccc1Cn1ccc(OCCc2cccs2)cc1=O`, the half-inhibitory concentration (IC50) is greater than 5 µM.

`Oc1cc(-c2cccc3ccccc23)[nH]n1` yielded an IC50 greater than 5 µM.

`CN1c2ccc(Cl)cc2N(c2ccccc2)C(=O)c2cn(Cc3ccc(CN4CCOCC4)cc3)nc21` displayed an IC50 greater than 5 µM.

As to `COc1c(NC(=O)[C@H]2CC[C@@H](COc3ccc([N+](=O)[O-])cc3)CC2)c(F)cc2c(=O)c(C(=O)O)cn(C3CC3)c12`, the IC50 is greater than 5 µM.

As for `C[N+]1(C)CCCC(OC(=O)C(O)(c2ccccc2)c2ccccc2)C1` (stereo not drawn), the half-inhibitory concentration (IC50) was greater than 5 µM.

For the compound `CC[C@@H](CO)NCCN[C@@H](CC)CO`, the IC50 was greater than 5 µM.

In the case of `COC(=O)Nc1nc2c(C)cccc2[nH]1`, the half-maximal inhibitory concentration (IC50) is greater than 5 µM.

On to `COc1ccc2c(c1)cc(CNC(=O)c1cc3ccccc3o1)n2CC(=O)O`, for which the IC50 was greater than 5 µM.

With `CC(=O)N[C@H](C)C(=O)N[C@H](Cc1ccccc1)C(=O)O`, the concentration for half-maximal inhibition (IC50) was greater than 5 µM.

The compound `CCCC1(C2CC2)c2cc(Cl)ccc2NC(=O)N1C` (stereo not drawn) gave an IC50 greater than 5 µM.

For `CNC(=O)C1O[C@@H](n2cnc3c(NCc4cccc(I)c4)nc(Cl)nc32)[C@H](O)[C@@H]1O` (stereo partly drawn), the IC50 is greater than 5 µM.

As to `CCc1cc(O)c(Oc2cccnc2N)cc1F`, the IC50 is greater than 5 µM.

Turning to `Cc1ccn2c(C(=O)NCc3ccccc3)c(C)nc2c1`, the IC50 was greater than 5 µM.

`CC(=O)N1CCN(c2ccc(OCC3COC(Cn4ccnc4)(c4ccc(Cl)cc4Cl)O3)cc2)CC1` (stereo not drawn) displayed a 50% inhibitory concentration (IC50) greater than 5 µM.

With `CCCCOC(=O)Nc1cc2nc(C3CCCCC3)[nH]c2cc1N(CC)CC`, the IC50 amounted to 1.79 µM. This lies in the single-digit micromolar range.

`N[C@H]1CCC[C@H]1C(=O)O` displayed an IC50 greater than 5 µM.

With `CCCCCCC1c2ccc(O)cc2Oc2cc(O)ccc21`, the IC50 is greater than 5 µM.

Turning to `N=C(N)c1ccc(COc2ccc(Cl)cc2)cc1`, the IC50 was greater than 5 µM.

Turning to `N#CCN1C(=O)COc2cc(F)c(N3C(=O)c4ccccc4C3=O)cc21`, the IC50 was greater than 5 µM.

For `O=C(O)COc1cccc2c1CC[C@](O)(COC(=O)N(c1ccccc1)c1ccccc1)C2`, the IC50 is greater than 5 µM.

Compound `C[C@H](NC(CC(=O)c1ccccc1C(F)(F)F)C(=O)O)c1ccccc1` (stereo partly drawn) came in with a 50% inhibitory concentration (IC50) greater than 5 µM.

Regarding `O=C(O)c1ccc(-c2ccc(O[C@H]3O[C@H](CO)[C@@H](O)[C@H](O)[C@@H]3O)cc2)cc1`, the half-maximal inhibitory concentration (IC50) was greater than 5 µM.

Take `OCCC#Cc1nc(-c2ccc(F)cc2)c(-c2ccncc2)n1CCCc1ccccc1`: the IC50 is greater than 5 µM.

`O=C(O)c1cc(-c2ccc(Br)cc2)nc2ccc(Cl)cc12` yielded a half-maximal inhibitory concentration (IC50) greater than 5 µM.

For the compound `Cc1cc(CCCOc2c(C)cc(-c3noc(C(F)(F)F)n3)cc2C)on1`, the half-inhibitory concentration (IC50) was greater than 5 µM.

The compound `OB1OCc2c1ccc(Cl)c2F` gave a 50% inhibitory concentration (IC50) greater than 5 µM.

In turn, `CC#C[C@]1(O)CC[C@H]2[C@@H]3CCC4=CC(=O)CCC4=C3[C@@H](c3ccc(N(C)C)cc3)C[C@@]21C` displayed an IC50 greater than 5 µM.

For the compound `COc1ccc(SCC(=O)N2c3ccccc3Sc3ccccc32)cc1`, the 50% inhibitory concentration (IC50) was greater than 5 µM.

The compound `FC(F)(F)Oc1ccc(Nc2ccc3cccc(Cl)c3n2)cc1` displayed an IC50 greater than 5 µM.

Compound `NC(=O)c1c(N)sc2c1CCCCC2` gave a half-inhibitory concentration (IC50) greater than 5 µM.

Compound `O=[N+]([O-])c1cn2c(n1)OC[C@@H](OCc1ccc(OC(F)(F)F)cc1)C2` had a half-inhibitory concentration (IC50) greater than 5 µM.

`O=C(O)[C@H]1C2CCC(CC2)[C@@H]1Nc1nc(-c2c[nH]c3ncc(F)cc23)ncc1F`: the IC50 was greater than 5 µM.

Regarding `CC(C)(C)c1cccc(-c2nc3cc(C(=N)N)ccc3[nH]2)c1O`, the IC50 was greater than 5 µM.

`Clc1ccc(COC(Cn2ccnc2)c2ccc(Cl)cc2Cl)c(Cl)c1` (stereo not drawn) came in with an IC50 greater than 5 µM.
